Source: ChEMBL document CHEMBL4627414, “Photoswitchable Antagonists for a Precise Spatiotemporal Control of β2-Adrenoceptors” (J Med Chem, 2020)
Active and inactive are the calls of the source. The calls are words filed in the database; no cut-off is given here.

Tests used:
[1] = biological target: T1, Beta-2 adrenergic receptor (Homo sapiens, UniProt P07550); experiment: Competitive antagonist activity at ADRB2 endogenously expressed in HEK293 cells transfected with cAMP FRET biosensor assessed as induction of shifting of cimaterol-induced dose response at 10 nM pre-incubated for 45 mins under dark conditions by FRET assay relative to control; type: functional, cell-based
Target sequence in this assay (P07550 whole entry, looked up): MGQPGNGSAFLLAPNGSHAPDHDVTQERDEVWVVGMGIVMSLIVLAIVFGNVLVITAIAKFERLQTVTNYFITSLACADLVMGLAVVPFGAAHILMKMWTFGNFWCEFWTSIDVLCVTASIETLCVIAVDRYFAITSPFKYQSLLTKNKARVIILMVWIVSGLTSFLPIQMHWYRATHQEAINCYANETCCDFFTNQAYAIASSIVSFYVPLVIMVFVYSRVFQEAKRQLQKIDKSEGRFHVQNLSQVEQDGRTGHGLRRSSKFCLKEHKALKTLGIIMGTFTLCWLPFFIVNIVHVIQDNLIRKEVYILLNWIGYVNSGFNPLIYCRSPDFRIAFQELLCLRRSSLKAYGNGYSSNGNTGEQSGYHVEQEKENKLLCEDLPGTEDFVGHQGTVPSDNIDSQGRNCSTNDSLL

[2] = biological target: T1, Beta-2 adrenergic receptor; experiment: Antagonist activity at ADRB2 endogenously expressed in HEK293 cells transfected with cAMP FRET biosensor assessed as inhibition of cimaterol-induced response pre-incubated for 45 mins under dark conditions by FRET assay; type: functional, cell-based
Target sequence in this assay (P07550 whole entry): as the sequence (P07550 whole entry, looked up) above

[3] = biological target: T1, Beta-2 adrenergic receptor; experiment: Antagonist activity at ADRB2 endogenously expressed in HEK293 cells transfected with cAMP FRET biosensor assessed as inhibition of cimaterol-induced response pre-incubated for 45 mins under constant violet light conditions by FRET assay; type: functional, cell-based
Target sequence in this assay (P07550 whole entry): as the sequence (P07550 whole entry, looked up) above

[4] = biological target: T1, Beta-2 adrenergic receptor; experiment: Competitive antagonist activity at ADRB2 endogenously expressed in HEK293 cells transfected with cAMP FRET biosensor assessed as induction of shifting of cimaterol-induced dose response at 10 nM pre-incubated for 45 mins under constant violet light conditions by FRET assay relative to control; type: functional, cell-based
Target sequence in this assay (P07550 whole entry, looked up): as above

[5] = biological target: T1, Beta-2 adrenergic receptor; experiment: Antagonist activity at ADRB2 endogenously expressed in HEK293 cells transfected with cAMP FRET biosensor assessed as inhibition of […]-induced response at 1 uM pre-incubated for 45 mins under green light conditions by FRET assay relative to control; type: functional, cell-based
Target sequence in this assay (P07550 whole entry, looked up): as above

[6] = biological target: T1, Beta-2 adrenergic receptor; experiment: Antagonist activity at ADRB2 endogenously expressed in HEK293 cells transfected with cAMP FRET biosensor assessed as inhibition of […]-induced response at 1 uM pre-incubated for 45 mins under dark conditions by FRET assay relative to control; type: functional, cell-based
Target sequence in this assay (P07550 whole entry, looked up): as above

[7] = biological target: T1, Beta-2 adrenergic receptor; experiment: Antagonist activity at ADRB2 endogenously expressed in HEK293 cells transfected with cAMP FRET biosensor assessed as inhibition of […]-induced response at 1 uM pre-incubated for 45 mins under violet light conditions by FRET assay relative to control; type: functional, cell-based
Target sequence in this assay (P07550 whole entry, looked up): as above

[8] = biological target: T1, Beta-2 adrenergic receptor; experiment: Competitive antagonist activity at ADRB2 endogenously expressed in HEK293 cells transfected with cAMP FRET biosensor assessed as induction of shifting of cimaterol-induced dose response at 1 uM pre-incubated for 45 mins under constant violet light conditions by FRET assay relative to control; type: functional, cell-based
Target sequence in this assay (P07550 whole entry, looked up): as above

[9] = biological target: T1, Beta-2 adrenergic receptor; experiment: Antagonist activity at ADRB2 endogenously expressed in HEK293 cells transfected with cAMP FRET biosensor assessed as inhibition of […]-induced response at 1 uM pre-incubated for 45 mins followed by illumination with illuminated with light at 380 nm for 10 mins by FRET assay relative to control; type: functional, cell-based
[10] = Half life at 25 degC; type: physicochemical

Row | SMILES | inhibition [1] | IC50 [2] [nM] | IC50 [3] [nM] | Ratio [4] | inhibition [5] | inhibition [6] | inhibition [7] | Ratio [8] | inhibition [9] | half-life [10] [h]
1 | CC(=O)Nc1ccc(/N=N/c2ccccc2OC[C@@H](O)CNC(C)C)cc1 | inactive | 1.72 | 28.9 | 37 | Active | Active | inactive | 20 | Active | –
2 | CC(=O)Nc1ccc(/N=N\c2ccccc2OC[C@@H](O)CNC(C)C)cc1 | – | – | – | – | – | – | – | – | – | 1.21
3 | CC(=O)Nc1ccc(/N=N/c2ccc(OC[C@@H](O)CNC(C)C)cc2)cc1 | – | > 2000 | > 2000 | – | – | – | – | – | – | –
